In patent EP4291552B1, “MODULATORS OF COMPLEX I” (Boehringer Ingelheim International GmbH, priority 2021, dated 2022):

Tested on: mice neuroblastoma cells (HT-22)
Assay: Determination of Cellular Protection (HT22)
Settings: Mus musculus, HT-22, 16 h, read-out: HT22 IC50

CC(C)Nc1ccc2c(c1)/C(=C1\CC3(CN1)COC3)C(=O)N2C1CCOCC1 [Compound 165]
IC50: 253 nM

CN(C)c1ccc2c(c1)/C(=C1\CCCN1)C(=O)N2C1CCN(C(=O)C(F)(F)F)CC1 [Compound 153]
IC50: 170 nM

COCC(C)Nc1ccc2c(c1)/C(=C1\COCCN1)C(=O)N2C1CCOCC1 (centres unmarked) [Compound 99]
IC50: 163 nM

CC(C)N1C(=O)/C(=C2/COCCN2)c2cc(NC3CCCC3)ccc21 [Compound 94]
IC50: 27 nM

CC(C)N1CCC(N2C(=O)/C(=C3/COCCN3)c3cc(N(C(C)C)C(C)C)ccc32)CC1 [Compound 122]
IC50: 944 nM

CC(=O)N1CCC2(CC1)CN/C(=C1\C(=O)N(C(C)C)c3ccc(N4CCCC4)cc31)CO2 [Compound 53]
IC50: 55 nM

CC(C)Nc1ccc2c(c1)/C(=C1\CCCN1C)C(=O)N2C(C)C [Compound 115]
IC50: 30 nM

CC(C)N1CCN/C(=C2\C(=O)N(C)c3ccc(N4CCCC4)cc32)C1 [Compound 23]
IC50: 173 nM

CC(Nc1ccc2c(c1)/C(=C1\COCCN1)C(=O)N2C(C)C)c1ccnn1C (centres unmarked) [Compound 17]
IC50: 159 nM

CCOC(=O)N1CCC(N2C(=O)/C(=C3/COCCN3)c3cc(NC(C)C)ccc32)CC1 [Compound 10]
IC50: 31 nM

CC1CCC(C)N1c1ccc2c(c1)/C(=C1\COCCN1)C(=O)N2C (centres unmarked) [Compound 84]
IC50: 141 nM

CC(C)Nc1ccc2c(c1)/C(=C1\CN(C3COC3)CCN1)C(=O)N2C1CCOCC1 [Compound 5]
IC50: 220 nM

CC(Nc1ccc2c(c1)/C(=C1\COCCN1)C(=O)N2C1CCOCC1)c1ccnn1C (centres unmarked) [Compound 79]
IC50: 221 nM

CC(Nc1ccc2c(c1)/C(=C1\COCCN1)C(=O)N2C1CCOCC1)C1CCCC1 (centres unmarked) [Compound 61]
IC50: 12 nM

CC(Nc1ccc2c(c1)/C(=C1\COCCN1)C(=O)N2C(C)C)c1nccs1 (centres unmarked) [Compound 144]
IC50: 85 nM

Nc1ccc2c(c1)/C(=C1\CCCN1)C(=O)N2C1CCOCC1 [Compound 83]
IC50: 2080 nM

O=C1/C(=C2/COCCN2)c2cc(NC3CCCC3)ccc2N1C1CCOCC1 [Compound 60]
IC50: 10 nM

COC1COCCC1Nc1ccc2c(c1)/C(=C1\COCCN1)C(=O)N2C1CCOCC1 (centres unmarked) [Compound 149]
IC50: 2940 nM

CC(C)N1C(=O)/C(=C2/CCCN2C)c2cc(NC3CCC3)ccc21 [Compound 161]
IC50: 20 nM

CN1CCN/C(=C2\C(=O)N(C)c3ccc(N4CCCC4)cc32)CC1 [Compound 64]
IC50: 65 nM

O=C1/C(=C2/COCCN2)c2cc(N3CCCCC3)ccc2N1C1CCOCC1 [Compound 86]
IC50: 1110 nM

CN1C(=O)/C(=C2/CCN(C3CCOC3)CCN2)c2cc(N3CCCC3)ccc21 (centres unmarked) [Compound 155]
IC50: 214 nM

CCC(C)Nc1ccc2c(c1)/C(=C1\COCCN1)C(=O)N2C(C)C (centres unmarked) [Compound 54]
IC50: 24 nM

CC1CCC(C)N1c1ccc2c(c1)/C(=C1\COCCN1)C(=O)N2C1CCOC1 (centres unmarked) [Compound 162]
IC50: 61 nM

CN(C)c1ccc2c(c1)/C(=C1/NCCN1c1ccccc1)C(=O)N2C [Compound 106]
IC50: 142 nM

CC(C)Nc1ccc2c(c1)/C(=C1\CN(C3CCOCC3)CCN1)C(=O)N2C(C)C [Compound 134]
IC50: 44 nM

CC(Nc1ccc2c(c1)/C(=C1\COCCN1)C(=O)N2C1CCOCC1)C1CC1 (centres unmarked) [Compound 20]
IC50: 34 nM

O=C1/C(=C2/CCOCCN2)c2cc(NC3CCCC3)ccc2N1C1CCOCC1 [Compound 13]
IC50: 14 nM

CC(=O)N1CCC(Nc2ccc3c(c2)/C(=C2\COCCN2)C(=O)N3C(C)C)CC1 [Compound 172]
IC50: 279 nM

CC(C)Nc1ccc2c(c1)/C(=C1\COCCN1)C(=O)N2[C@H]1CCN(C2COC2)C1 [Compound 69]
IC50: 141 nM

CN(C)c1ccc2c(c1)/C(=C1\CCCN1)C(=O)N2C [Compound 1]
IC50: 282 nM

CC1COC/C(=C2/C(=O)N(C3CCOCC3)c3ccc(N4C(C)CCC4C)cc32)N1 (centres unmarked) [Compound 93]
IC50: 101 nM

CC(C)N1C(=O)/C(=C2/CCOCCN2)c2cc(NC3CCC3)ccc21 [Compound 22]
IC50: 11 nM

CC(Nc1ccc2c(c1)/C(=C1\COCCN1)C(=O)N2C1CCOCC1)c1cnccn1 (centres unmarked) [Compound 146]
IC50: 211 nM

CN(C)c1ccc2c(c1)/C(=C1\CCCCCN1)C(=O)N2C [Compound 105]
IC50: 91 nM

CN(C)c1ccc2c(c1)/C(=C1\CCN(C(=O)OCc3ccccc3)CCN1)C(=O)N2C [Compound 108]
IC50: 128 nM

CC(C)Nc1ccc2c(c1)/C(=C1\CCCN1C)C(=O)N2C1CCOCC1 [Compound 48]
IC50: 353 nM

CN1C(=O)/C(=C2/COCCN2)c2cc(NC3CCC3)ccc21 [Compound 154]
IC50: 18 nM

CN(C)c1ccc2c(c1)/C(=C1\CCCN1)C(=O)N2C1CCOCC1 [Compound 42]
IC50: 951 nM

O=C1/C(=C2/COCCN2)c2cc(NC3CCC(F)(F)CC3)ccc2N1C1CCOCC1 [Compound 78]
IC50: 37 nM

CC(C)C(C)Nc1ccc2c(c1)/C(=C1\COCCN1)C(=O)N2C1COC1 (centres unmarked) [Compound 66]
IC50: 19 nM

CC(C)N1C(=O)/C(=C2/CCCCN2)c2cc(N3CCOCC3)ccc21 [Compound 158]
IC50: 2070 nM

CN1C(=O)/C(=C2/CCOCCN2)c2cc(N3CCCC3)ccc21 [Compound 107]
IC50: 69 nM

CC(C)N1C(=O)/C(=C2/COCCN2)c2cc(NCC3(C)COC3)ccc21 [Compound 127]
IC50: 176 nM

CN(C)c1ccc2c(c1)/C(=C1\COCCN1)C(=O)N2C [Compound 2]
IC50: 1050 nM

CC(C)N1C(=O)C(=C2CCOCC2)c2cc(N3CCCC3)ccc21 [Compound 7]
IC50: 256 nM

COCC(C)Nc1ccc2c(c1)/C(=C1\COCCN1)C(=O)N2C1CCOC1 (centres unmarked) [Compound 52]
IC50: 198 nM

CC(Nc1ccc2c(c1)/C(=C1\COCCN1)C(=O)N2C(C)C)c1cccnc1 (centres unmarked) [Compound 15]
IC50: 115 nM

CC(C)Nc1ccc2c(c1)/C(=C1\COC3(CCN(C(C)C)CC3)CN1)C(=O)N2C(C)C [Compound 138]
IC50: 6 nM

CC(=O)N1CCN/C(=C2\C(=O)N(C3CCOCC3)c3ccc(NC(C)C)cc32)C1 [Compound 111]
IC50: 249 nM

O=C1/C(=C2/COCCN2)c2cc(NCC3CC3)ccc2N1C1CCOCC1 [Compound 103]
IC50: 105 nM

CCC(C)Nc1ccc2c(c1)/C(=C1\COCCN1)C(=O)N2C1CCOCC1 (centres unmarked) [Compound 59]
IC50: 22 nM

CCOC(=O)N1CCC(N2C(=O)/C(=C3/COCCN3)c3cc(N(C)C)ccc32)CC1 [Compound 89]
IC50: 493 nM

CC(C)N1C(=O)/C(=C2/COCCN2)c2cc(NCC3CCOC3)ccc21 (centres unmarked) [Compound 39]
IC50: 102 nM

CC(C)Nc1ccc2c(c1)C(=C1CCOCC1)C(=O)N2C1CCOCC1 [Compound 6]
IC50: 207 nM

CC(=O)N1CC[C@H](N2C(=O)/C(=C3/COCCN3)c3cc(NC(C)C)ccc32)C1 [Compound 170]
IC50: 159 nM

CCOC(=O)N1CCC(N2C(=O)/C(=C3/COCCN3)c3cc(N4CCCC4)ccc32)CC1 [Compound 118]
IC50: 33 nM

CC(C)N1C(=O)/C(=C2/CCOCCN2)c2cc(N3C(C)CCC3C)ccc21 (centres unmarked) [Compound 128]
IC50: 47 nM

CC1CCC(C)N1c1ccc2c(c1)/C(=C1\CCOCCN1)C(=O)N2C1CCOCC1 (centres unmarked) [Compound 29]
IC50: 142 nM

O=C1/C(=C2/COCCN2)c2cc(N3CCCC3)ccc2N1C1CCOCC1 [Compound 117]
IC50: 22 nM

CCC(CC)Nc1ccc2c(c1)/C(=C1\COCCN1)C(=O)N2C(C)C [Compound 171]
IC50: 23 nM

CC(C)Nc1ccc2c(c1)/C(=C1\COCC(C)N1)C(=O)N2C1CCOCC1 (centres unmarked) [Compound 33]
IC50: 37 nM

CC(C)N1C(=O)C(=C2CCOCC2)c2cc(N)ccc21 [Compound 157]
IC50: 1660 nM

CC(C)Nc1ccc2c(c1)/C(=C1\COCCN1)C(=O)N2C1CCOC1 (centres unmarked) [Compound 163]
IC50: 52 nM

CC(C)N1C(=O)/C(=C2/COCCN2)c2cc(N3CCOCC3)ccc21 [Compound 166]
IC50: 649 nM

COCC(C)Nc1ccc2c(c1)/C(=C1\COCCN1)C(=O)N2C1COC1 (centres unmarked) [Compound 137]
IC50: 886 nM

CC(C)N1CCC2(CC1)CN/C(=C1\C(=O)N(C(C)C)c3ccc(N4C(C)CCC4C)cc31)CO2 (centres unmarked) [Compound 139]
IC50: 18 nM

CNc1ccc2c(c1)/C(=C1\CCCN1)C(=O)N2C1CCOCC1 [Compound 43]
IC50: 124 nM

CC(C)Nc1ccc2c(c1)/C(=C1\CCN(C(C)C)CCN1)C(=O)N2C1CCOCC1 [Compound 164]
IC50: 30 nM

CC(C)N1C(=O)/C(=C2/CCOCCN2)c2cc(N3CCCC3)ccc21 [Compound 129]
IC50: 23 nM

CC(=O)N1CCN/C(=C2\C(=O)N(C3CCOCC3)c3ccc(N4CCCC4)cc32)CC1 [Compound 12]
IC50: 191 nM

CC(C)Nc1ccc2c(c1)/C(=C1\COCCN1)C(=O)N2[C@H]1CCN(C(C)C)C1 [Compound 31]
IC50: 41 nM

CC(C)Nc1ccc2c(c1)/C(=C1\COCCN1)C(=O)N2C(C)C [Compound 44]
IC50: 30 nM

CC(Nc1ccc2c(c1)/C(=C1\COCCN1)C(=O)N2C(C)C)c1cnccn1 (centres unmarked) [Compound 57]
IC50: 199 nM

CN1C(=O)/C(=C2/CCN(C3COC3)CCN2)c2cc(N3CCCC3)ccc21 [Compound 45]
IC50: 261 nM

CC(Nc1ccc2c(c1)/C(=C1\COCCN1)C(=O)N2C(C)C)C1CC1 (centres unmarked) [Compound 97]
IC50: 17 nM

CC(C)N1C(=O)C(=C2CCOCC2)c2cc(NC3CCC3)ccc21 [Compound 25]
IC50: 96 nM

CC(C)Nc1ccc2c(c1)/C(=C1\COCCN1)C(=O)N2C [Compound 63]
IC50: 134 nM

COCC(C)N1C(=O)/C(=C2/COCCN2)c2cc(N3CCCC3)ccc21 (centres unmarked) [Compound 68]
IC50: 134 nM

O=C1/C(=C2/COCCCN2)c2cc(NC3CCOC3)ccc2N1C1CCOCC1 (centres unmarked) [Compound 141]
IC50: 646 nM

O=C1/C(=C2/COCCN2)c2cc(NC3CCCC3)ccc2N1C1COC1 [Compound 65]
IC50: 18 nM

CC(C)N1C(=O)/C(=C2/COCCN2)c2cc(NC3CCC(F)(F)CC3)ccc21 [Compound 72]
IC50: 6 nM

CC(C)N1C(=O)/C(=C2/COCCN2)c2cc(NCC(C)(C)C)ccc21 [Compound 145]
IC50: 4 nM

CC(C)N1C(=O)/C(=C2/COCCN2)c2cc(NCC3CCOCC3)ccc21 [Compound 75]
IC50: 73 nM

O=C1/C(=C2/CCOCCN2)c2cc(NC3CCOC3)ccc2N1C1CCOCC1 (centres unmarked) [Compound 140]
IC50: 524 nM

O=C1/C(=C2/CCOCCN2)c2cc(NC3CCC3)ccc2N1C1CCOCC1 [Compound 120]
IC50: 51 nM
